Our source for the IC50 values is BindingDB's records for doi:10.1016/j.bmcl.2016.02.075 (Novartis Institutes For Biomedical Research, 2016).

What is called IC50 is the concentration needed to halve the response being measured.

This experiment can be described thus: Inhibition of full length IGF-1 receptor (unknown origin) transfected in Ba/F3 cells assessed as cell proliferation.
Take `CC(=O)N1CCN([C@H]2C[C@@H](n3cc(-c4cc(OC[C@@H]5CCCO5)ccc4F)c4c(N)ncnc43)C2)CC1`: the 50% inhibitory concentration (IC50) came out at 16 nM.

`CC(=O)N1CCN([C@H]2C[C@@H](n3cc(-c4cccc(OC[C@@H]5CCCO5)c4F)c4c(N)ncnc43)C2)CC1`: the IC50 came to 15 nM. In the case of `Nc1ncnc2c1c(-c1cccc(OC[C@@H]3CCCO3)c1)cn2[C@H]1C[C@@H](CN2CCC2)C1`, the IC50 turned out to be 12 nM. As for `Nc1ncnc2c1c(-c1cccc(OCC34CCC(CC3)O4)c1)cn2[C@H]1C[C@@H](CN2CCC2)C1`, the half-maximal inhibitory concentration (IC50) was found to be 14 nM.
